Results reported in patent US10112937B2, “P2X7 modulators and methods of use” (Janssen Pharmaceutica NV, priority 2013, dated 2018).

Tests used:
Type in all cases: cell-based
rat P2X7 = rat P2X7 (Rattus norvegicus (Rat), UniProt Q64663); experiment: Ca2+ flux (FLIPR) in 1321N1 cells expressing recombinant rat P2X7;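 also: Calcium-4 dye fluorescence change read 180 s after agonist addition, with cells preincubated 30 min with compound and dye in 96-well plates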
Method: (§1) P2X7 Antagonism in Recombinant Human P2X7 Cells or Recombinant Rat P2X7 Cells: (a) Ca^2+ Flux and (b) Radioligand Binding
(§2) 1321N1 cells expressing the recombinant human or rat P2X7 channel was cultured in HyQ DME/(HyClone/Dulbecco's Modified Eagle Medium) high glucose supplemented with 10% Fetal Bovine Serum (FBS) and appropriate selection marker. Cells were seeded at a density of 25000 cells/well (96-well clear bottom black walled plates) in 100 μl volume/well. On the day of the experiment, cell plates were washed with assay buffer, containing (in mM): 130 NaCl, 2 KCl, 1 CaCl2, 1 MgCl2, 10 HEPES, 5 glucose; pH 7.40 and 300 mOs. After the wash, cells were loaded with the Calcium-4 dye (Molecular Device) and incubated in the dark for 60 minutes. Test compounds were prepared at 250× the test concentration in neat DMSO. Intermediate 96-well compound plates were prepared by transferring 1.2 μL of the compound into 300 μL of assay buffer. A further 3× dilution occurred when transferring 50 μL/well of the compound plate to 100 μL/well in the cell plate. Cells were incubated with test compounds and dye for 30 minutes. […] The fluorescence change was measured 180 seconds after adding the agonist.

human P2X7 [1] = biological target: T1, human P2X7 (Homo sapiens (Human), UniProt Q99572); experiment: P2X7 antagonism in human PBMCs (IL-1β release after LPS + Bz-ATP, ELISA); details: human PBMCs
Method: P2X7 Antagonism in Human Peripheral Blood Mononuclear Cells (PBMCs) and Human Whole Blood.
Human blood was collected using a blood donor program. PBMCs were isolated from blood using a Ficoll density gradient technique. Briefly, blood was laid on Ficoll solution and centrifuged at RT for 20 minutes at 2000 rpm. The buffy layer (between red blood cells and plasma) was carefully collected by aspiration, washed with PBS and centrifuged again at 1500 rpm for 15 minutes. The resulting cell pellet was washed and plated on 96 well-plates for experiments. For the Human Whole Blood experiments, 150 μl of human blood was platted on 96 well-plates. Lipopolysaccharide (LPS) (30 ng/ml) was added to each well and incubated for 1 hour. Test compounds were then added and incubated for 30 minutes. The P2X7 agonist, 2′(3′)-O-(4-benzoylbenzoyl) adenosine 5′ triphosphate (Bz-ATP) was then added at a final concentration of 0.5 mM (PBMC) or 1 mM (blood). Cells were incubated for an additional 1.5 hours. At that point, supernatant was collected and stored for IL-1β assay using manufacturer's protocol for enzyme-linked immunosorbent assay (ELISA). Data was expressed as percent control, where control is defined as the difference in IL-1β release in LPS+Bz-ATP samples and LPS only samples. Data was plotted as response (% control) versus concentration to generate IC50 values. […] Data are analyzed and graphed on Graphpad Prism 5. For analysis, each concentration point is averaged from triplicate values and the averaged values are plotted on Graphpad Prism.

human P2X7 [2] = biological target: T1, human P2X7; experiment: Ca2+ flux (FLIPR) in 1321N1 cells expressing recombinant human P2X7;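 also: cells loaded with Calcium-4 dye, preincubated with test compound for 30 min, fluorescence change read 180 s after agonist addition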
Method: as §1, §2

[3] = 1321N1 cells, recombinant rat P2X7, 250 μM BzATP
[4] = 1321N1 cells, recombinant human P2X7, 250 μM BzATP
[5] = Ca2+ flux, 250 μM BzATP, rat P2X7 1321N1 cells
[6] = 10 μM test compound, LPS + Bz-ATP
[7] = Ca2+ flux, 250 μM BzATP, human P2X7 1321N1 cells

T1 sequence (Q99572 whole entry): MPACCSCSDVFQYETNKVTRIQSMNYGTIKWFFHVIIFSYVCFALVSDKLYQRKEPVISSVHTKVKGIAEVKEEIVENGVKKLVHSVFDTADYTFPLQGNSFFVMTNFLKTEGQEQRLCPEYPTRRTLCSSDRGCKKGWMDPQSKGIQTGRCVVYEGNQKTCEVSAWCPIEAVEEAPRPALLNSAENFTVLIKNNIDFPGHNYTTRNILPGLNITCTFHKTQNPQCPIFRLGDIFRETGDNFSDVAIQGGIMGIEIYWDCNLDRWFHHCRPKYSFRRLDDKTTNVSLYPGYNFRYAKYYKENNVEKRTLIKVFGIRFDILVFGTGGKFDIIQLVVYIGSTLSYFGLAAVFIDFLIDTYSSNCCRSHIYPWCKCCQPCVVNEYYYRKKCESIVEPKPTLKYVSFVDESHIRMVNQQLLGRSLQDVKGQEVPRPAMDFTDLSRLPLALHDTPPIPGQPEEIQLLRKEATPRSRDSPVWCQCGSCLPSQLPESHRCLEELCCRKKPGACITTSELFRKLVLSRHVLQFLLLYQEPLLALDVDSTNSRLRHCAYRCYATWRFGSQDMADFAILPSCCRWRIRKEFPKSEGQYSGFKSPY
Sequence of rat P2X7 (Q64663 whole entry): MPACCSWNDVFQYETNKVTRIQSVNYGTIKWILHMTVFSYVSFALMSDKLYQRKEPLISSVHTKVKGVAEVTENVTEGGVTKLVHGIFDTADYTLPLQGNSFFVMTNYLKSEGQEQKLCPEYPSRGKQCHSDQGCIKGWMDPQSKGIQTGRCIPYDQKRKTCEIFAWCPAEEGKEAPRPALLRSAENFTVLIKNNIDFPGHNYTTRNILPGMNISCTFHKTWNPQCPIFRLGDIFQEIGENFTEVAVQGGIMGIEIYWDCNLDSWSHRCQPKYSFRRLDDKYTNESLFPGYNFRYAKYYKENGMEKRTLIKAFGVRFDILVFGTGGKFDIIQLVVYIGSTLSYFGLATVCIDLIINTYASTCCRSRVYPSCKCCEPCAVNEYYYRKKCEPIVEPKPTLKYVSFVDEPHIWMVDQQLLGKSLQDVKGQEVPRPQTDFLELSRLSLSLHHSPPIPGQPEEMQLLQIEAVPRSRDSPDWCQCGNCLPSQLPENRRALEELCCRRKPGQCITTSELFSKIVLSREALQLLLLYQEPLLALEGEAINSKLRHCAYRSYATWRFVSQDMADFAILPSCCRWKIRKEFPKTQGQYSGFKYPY

| IC50 (rat P2X7; [3]) [nM] | PBMC 10 μM (% control) (human P2X7 [1]; test compound 10 μM) | IC50 (human P2X7 [2]; [4]) [nM] | IC50 (rat P2X7; [5]) [nM] | PBMC 10 μM (% control) (human P2X7 [1]; [6]) | IC50 (human P2X7 [2]; [7]) [nM] | SMILES |
| --- | --- | --- | --- | --- | --- | --- |
| 30.4 | 8.3 | 2.1 | – | – | – | O=C(c1cccc(C(F)(F)F)c1Cl)N1CCc2c(nnn2-c2cc(F)ccn2)C1 [Example 131, (2-Chloro-3-(trifluoromethyl)phenyl)(1-(4-fluoropyridin-2-yl)-6,7-dihydro-1H-[1,2,3]triazolo[4,5-c]pyridin-5(4H)-yl)methanone] |
| 1350 | 3.4 | 255 | – | – | – | O=C(c1ccc(Cl)cc1F)N1CCc2c(nnn2-c2ncccn2)C1 [Example 280, (4-chloro-2-fluorophenyl)(1-(pyrimidin-2-yl)-6,7-dihydro-1H-[1,2,3]triazolo[4,5-c]pyridin-5(4H)-yl)methanone] |
| 349 | −1.9 | 2.2 | – | – | – | Cc1c(C(=O)N2CCc3c(nnn3-c3ncccn3)C2)cccc1C(F)(F)F [Example 281, (2-methyl-3-(trifluoromethyl)phenyl)(1-(pyrimidin-2-yl)-6,7-dihydro-1H-[1,2,3]triazolo[4,5-c]pyridin-5(4H)-yl)methanone] |
| > 10000 | 98.2 | > 10000 | – | – | – | Cc1cc(-n2nnc3c2CCN(C(=O)c2cc(C(F)(F)F)ccc2Cl)C3C)ncc1F (stereo not drawn) [Example 352, (2-chloro-5-(trifluoromethyl)phenyl)(1-(5-fluoro-4-methylpyridin-2-yl)-4-methyl-6,7-dihydro-1H-[1,2,3]triazolo[4,5-c]pyridin-5(4H)-yl)methanone] |
| > 10000 | 75.3 | > 10000 | – | – | – | Cc1cc(-n2nnc3c2CCN(C(=O)c2cc(Cl)cc(C(F)(F)F)c2)C3C)ncc1F (stereo not drawn) [Example 361, (3-chloro-5-(trifluoromethyl)phenyl)(1-(5-fluoro-4-methylpyridin-2-yl)-4-methyl-6,7-dihydro-1H-[1,2,3]triazolo[4,5-c]pyridin-5(4H)-yl)methanone] |
| 10100 | 17.2 | 1660 | – | – | – | Cc1ccnc(-n2nnc3c2CCN(C(=O)c2cccc(OC(F)(F)F)c2F)C3C)c1 (stereo not drawn) [Example 373, (2-fluoro-3-(trifluoromethoxy)phenyl)(4-methyl-1-(4-methylpyridin-2-yl)-6,7-dihydro-1H-[1,2,3]triazolo[4,5-c]pyridin-5(4H)-yl)methanone] |
| > 10000 | 104.3 | > 10000 | – | – | – | Cc1cc(-n2nnc3c2CCN(C(=O)c2cccc(OC(F)(F)F)c2F)C3C)ncc1F (stereo not drawn) [Example 374, (2-fluoro-3-(trifluoromethoxy)phenyl)(1-(5-fluoro-4-methylpyridin-2-yl)-4-methyl-6,7-dihydro-1H-[1,2,3]triazolo[4,5-c]pyridin-5(4H)-yl)methanone] |
| > 10000 | −6.3 | 1380 | – | – | – | CC1c2nnn(-c3ncc[nH]3)c2CCN1C(=O)c1cccc(Cl)c1Cl (stereo not drawn) [Example 384, (1-(1H-imidazol-2-yl)-4-methyl-6,7-dihydro-1H-[1,2,3]triazolo[4,5-c]pyridin-5(4H)-yl)(2,3-dichlorophenyl)methanone] |
| > 10000 | 23.0 | 9770 | – | – | – | Cc1cc(-n2nnc3c2CCN(C(=O)c2cccc(C(F)(F)F)c2F)C3C)ncn1 (stereo not drawn) [Example 396, (2-fluoro-3-(trifluoromethyl)phenyl)(4-methyl-1-(6-methylpyrimidin-4-yl)-6,7-dihydro-1H-[1,2,3]triazolo[4,5-c]pyridin-5(4H)-yl)methanone] |
| > 10000 | 0.2 | 538 | – | – | – | Cc1nccc(-n2nnc3c2CCN(C(=O)c2cccc(C(F)(F)F)c2Cl)C3C)n1 (stereo not drawn) [Example 398, (2-chloro-3-(trifluoromethyl)phenyl)(4-methyl-1-(2-methylpyrimidin-4-yl)-6,7-dihydro-1H-[1,2,3]triazolo[4,5-c]pyridin-5(4H)-yl)methanone] |
| > 10000 | 1.1 | 1720 | – | – | – | Cc1nccc(-n2nnc3c2CCN(C(=O)c2ccnc(C(F)(F)F)c2Cl)C3C)n1 (stereo not drawn) [Example 399, (3-chloro-2-(trifluoromethyl)pyridin-4-yl)(4-methyl-1-(2-methylpyrimidin-4-yl)-6,7-dihydro-1H-[1,2,3]triazolo[4,5-c]pyridin-5(4H)-yl)methanone] |
| > 10000 | 32.0 | 16900 | – | – | – | Cc1nccc(-n2nnc3c2CCN(C(=O)c2cccc(C(F)(F)F)c2F)C3C)n1 (stereo not drawn) [Example 400, (2-fluoro-3-(trifluoromethyl)phenyl)(4-methyl-1-(2-methylpyrimidin-4-yl)-6,7-dihydro-1H-[1,2,3]triazolo[4,5-c]pyridin-5(4H)-yl)methanone] |
| 12500 | −0.2 | 436 | – | – | – | Cc1cc(-n2nnc3c2CCN(C(=O)c2ccnc(C(F)(F)F)c2Cl)C3C)ncn1 (stereo not drawn) [Example 403, (3-chloro-2-(trifluoromethyl)pyridin-4-yl)(4-methyl-1-(6-methylpyrimidin-4-yl)-6,7-dihydro-1H-[1,2,3]triazolo[4,5-c]pyridin-5(4H)-yl)methanone] |
| – | – | – | 2300 | −0.4 | 1600 | CCn1ccc(-n2nnc3c2CCN(C(=O)c2cccc(C(F)(F)F)c2Cl)[C@H]3C)n1 [Example 405, (S)-(2-chloro-3-(trifluoromethyl)phenyl)(1-(1-ethyl-1H-pyrazol-3-yl)-4-methyl-6,7-dihydro-1H-[1,2,3]triazolo[4,5-c]pyridin-5(4H)-yl)methanone] |
| – | – | – | 18.4 | 0.5 | 28.9 | CCn1ccc(-n2nnc3c2CCN(C(=O)c2ccnc(C(F)(F)F)c2F)[C@H]3C)n1 [Example 409, (S)-(1-(1-ethyl-1H-pyrazol-3-yl)-4-methyl-6,7-dihydro-1H-[1,2,3]triazolo[4,5-c]pyridin-5(4H)-yl)(3-fluoro-2-(trifluoromethyl)pyridin-4-yl)methanone] |
| – | – | – | 4.1 | −12.6 | 28.3 | CC(C)n1ccc(-n2nnc3c2C[C@H](C)N(C(=O)c2cccc(C(F)(F)F)c2Cl)C3)n1 [Example 412, (S)-(2-chloro-3-(trifluoromethyl)phenyl)(1-(1-isopropyl-1H-pyrazol-3-yl)-6-methyl-6,7-dihydro-1H-[1,2,3]triazolo[4,5-c]pyridin-5(4H)-yl)methanone] |
| – | – | – | 36600 | 22.4 | > 10000 | CC(C)n1ccc(-n2nnc3c2C[C@H](C)N(C(=O)c2cccc(C(F)(F)F)c2F)C3)n1 [Example 414, (S)-(2-fluoro-3-(trifluoromethyl)phenyl)(1-(1-isopropyl-1H-pyrazol-3-yl)-6-methyl-6,7-dihydro-1H-[1,2,3]triazolo[4,5-c]pyridin-5(4H)-yl)methanone] |
| – | – | – | 12.9 | 1.5 | 146 | CC(C)n1ccc(-n2nnc3c2CCN(C(=O)c2cccc(C(F)(F)F)c2F)[C@H]3C)n1 [Example 415, (S)-(2-fluoro-3-(trifluoromethyl)phenyl)(1-(1-isopropyl-1H-pyrazol-3-yl)-4-methyl-6,7-dihydro-1H-[1,2,3]triazolo[4,5-c]pyridin-5(4H)-yl)methanone] |
| – | – | – | 8.1 | 1.9 | 47.3 | CC(C)n1ccc(-n2nnc3c2C[C@H](C)N(C(=O)c2ccnc(C(F)(F)F)c2Cl)C3)n1 [Example 416, (S)-(3-chloro-2-(trifluoromethyl)pyridin-4-yl)(1-(1-isopropyl-1H-pyrazol-3-yl)-6-methyl-6,7-dihydro-1H-[1,2,3]triazolo[4,5-c]pyridin-5(4H)-yl)methanone] |
| – | – | – | 15.7 | −0.4 | 92 | CC(C)n1ccc(-n2nnc3c2CCN(C(=O)c2ccnc(C(F)(F)F)c2F)[C@H]3C)n1 [Example 419, (S)-(3-fluoro-2-(trifluoromethyl)pyridin-4-yl)(1-(1-isopropyl-1H-pyrazol-3-yl)-4-methyl-6,7-dihydro-1H-[1,2,3]triazolo[4,5-c]pyridin-5(4H)-yl)methanone] |
| – | – | – | > 10000 | −1.4 | 1030 | C[C@H]1c2nnn(-c3ccsc3)c2CCN1C(=O)c1cccc(C(F)(F)F)c1Cl [Example 421, (S)-(2-chloro-3-(trifluoromethyl)phenyl)(4-methyl-1-(thiophen-3-yl)-6,7-dihydro-1H-[1,2,3]triazolo[4,5-c]pyridin-5(4H)-yl)methanone] |
| – | – | – | > 10000 | 113.2 | > 10000 | C[C@H]1Cc2c(nnn2-c2ncc(F)cn2)CN1C(=O)c1cccc(C(F)(F)F)c1O [Example 426, (S)-(1-(5-fluoropyrimidin-2-yl)-6-methyl-6,7-dihydro-1H-[1,2,3]triazolo[4,5-c]pyridin-5(4H)-yl)(2-hydroxy-3-(trifluoromethyl)phenyl)methanone] |
| – | – | – | 8280 | −0.8 | 262 | C[C@H]1Cc2c(nnn2-c2ncc(F)cn2)CN1C(=O)c1cccc(OC(F)(F)F)c1F [Example 427, (S)-(2-fluoro-3-(trifluoromethoxy)phenyl)(1-(5-fluoropyrimidin-2-yl)-6-methyl-6,7-dihydro-1H-[1,2,3]triazolo[4,5-c]pyridin-5(4H)-yl)methanone] |
| – | – | – | 21.2 | 1.4 | 16.6 | C[C@H]1Cc2c(nnn2-c2ncc(O)cn2)CN1C(=O)c1cccc(C(F)(F)F)c1F [Example 428, (S)-(2-fluoro-3-(trifluoromethyl)phenyl)(1-(5-hydroxypyrimidin-2-yl)-6-methyl-6,7-dihydro-1H-[1,2,3]triazolo[4,5-c]pyridin-5(4H)-yl)methanone] |
